Reference: article PMC3842914, “Meleagrin, a New FabI Inhibitor from Penicillium chryosogenum with at Least One Additional Mode of Action” (PLoS ONE, 2013)
≈ marks a conversion by molar mass, not a printed value. Where two headings read alike, the source gives them in different places.

Columns and labels:
S. aureus FabI = target: T1, S. aureus FabI (Staphylococcus aureus, UniProt Q6GI75); assay: S. aureus FabI enzyme assay (NADPH use at 340 nm, t-o-NAC thioester substrate); format: biochemical
T1 construct: made in house
T1 sequence (Q6GI75 1-256): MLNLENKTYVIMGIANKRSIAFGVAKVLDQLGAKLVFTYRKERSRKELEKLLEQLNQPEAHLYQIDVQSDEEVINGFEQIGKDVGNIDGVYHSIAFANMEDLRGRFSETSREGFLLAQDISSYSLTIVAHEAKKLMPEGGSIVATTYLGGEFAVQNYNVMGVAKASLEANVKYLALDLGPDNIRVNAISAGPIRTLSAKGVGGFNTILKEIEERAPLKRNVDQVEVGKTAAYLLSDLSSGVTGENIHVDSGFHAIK
Excerpt: (§1) S. aureus FabI and E. coli FabI enzymes were cloned, overexpressed, and purified as described previously. The wild-type fabK gene was amplified by PCR from genomic DNA obtained from Streptococcus pneumoniae KCTC 5412 by using the primers 5′-[…]-3′ and 5′-[…]-3′, which contained NdeI and XhoI restriction sites, respectively. After the DNA sequence was confirmed, the gene was cloned into the pET22b vector (Novagen, Gibbstown, NJ, USA). The construct was transformed into E. coli BL21 (DE3) for expression following induction with isopropylthiogalactoside. The C-terminal His-tagged protein was purified as described previously. Assays were conducted in half-area, 96-well microtiter plates. The compounds were dissolved in DMSO and evaluated in 100-μL assay mixtures containing components specific for each enzyme (see below). Reduction of the trans-2-octenoyl N-acetylcysteamine (t-o-NAC thioester) substrate analog was measured spectrophotometrically following the utilization of NADH or NADPH at 340 nm at 30°C for the linear period of the assay. S. aureus FabI assays contained 50 mM sodium acetate (pH 6.5), 200 μM t-o-NAC thioester, 200 μM NADPH, and 150 nM S. aureus FabI.
(§2) NADH was used as a cofactor rather than NADPH for the E. coli FabI assay. Substrate concentrations used for the Lineweaver–Burk plot were 100, 200, 300, and 400 μM, whereas the concentrations of the cofactor were 100, 200, 400, and 600 μM. The rate of decrease in the amount of NADPH in each reaction was measured with a microtiter enzyme-linked immunosorbent assay (ELISA) reader by using the SOFTmax PRO software (Molecular Devices, Sunnyvale, CA, USA). The inhibitory activity was calculated according to the following formula: % of inhibition = 100× [1− (rate in the presence of compound/rate in the untreated control)]. IC50 values were calculated by fitting the data to a sigmoid equation. An equal volume of DMSO solvent was used for the untreated control. FabK assays contained 100 mM sodium acetate (pH 6.5), 2% glycerol, 200 mM NH4Cl, 50 µM t-o-NAC thioester, 200 µM NADH, and 150 nM S. pneumoniae FabK.

S. aureus RN4220 [1] = assay: MIC by broth microdilution, S. aureus RN4220 (wild type); format: cell-based, Staphylococcus aureus; conditions: Staphylococcus aureus; S. aureus RN4220 (wild type)
Method: (§3) Whole-cell antimicrobial activity was determined by broth microdilution as described previously. The test strains except for S. pneumoniae were grown to mid-log phase in Mueller–Hinton broth and diluted 1,000-fold in the same medium. Cells (10^5/mL) were inoculated into Mueller–Hinton broth and dispensed at 0.2 mL/well into a 96-well microtiter plate. S. pneumoniae was grown in tryptic soy broth supplemented with 5% sheep blood. MICs were determined in triplicate by serial 2-fold dilutions of test compounds. […] Bacterial growth was determined by measuring the absorption at 650 nm by using a microtiter ELISA reader.

S. aureus RN4220 (pE194) = assay: Overexpression assay, MIC for vector-containing S. aureus RN4220 (pE194); format: cell-based; conditions: Staphylococcus aureus, read-out: MIC S. aureus (pE194)
Method: as §3
(§4) An overexpression assay using S. aureus RN4220, S. aureus RN4220 (pE194), and S. aureus RN4220 (pE194-fabI) was conducted to perform target validation of FabI inhibitors as described previously. Additionally, both fabI- and fabK-overexpressing E. coli were constructed to test a multitarget effect of the compounds. The wild-type fabI gene from the genomic DNA of E. coli W3110 was amplified by PCR by using the primers 5′-[…]-3′ and 5′-[…]-3′. The wild-type fabK gene from the genomic DNA of S. pneumoniae KCTC 5412 was amplified by PCR by using the primers 5′-[…]-3′ and 5′-[…] […]-3′. The resulting products were cloned into the pBAD-TOPO TA expression vector (Invitrogen, Carlsbad, CA, USA) to yield the pBAD-fabI and pBAD-fabK recombinant plasmids, which placed the expression of the genes fabI and fabK, respectively, under the control of the arabinose promoter. Recombinant pBAD-fabI and pBAD-fabK were then introduced into the pump-negative (tolC) E. coli EW1b via electroporation to generate E. coli EW1b (pBAD-fabI) and E. coli EW1b (pBAD-fabK), respectively.

[2] = tested on: S. aureus RN4220 (pE194-fabI); assay: Overexpression assay, MIC for fabI-overexpressing S. aureus RN4220 (pE194-fabI); format: cell-based; conditions: Staphylococcus aureus, read-out: MIC S. aureus (pE194-fabI)
Method: as §3, §4

S. aureus RN4220 [3] = assay: Inhibition of macromolecular biosynthesis (radiolabeled precursor incorporation) in S. aureus; format: cell-based, Staphylococcus aureus; conditions: drugs at 2 times the MIC
Method: (§5) To monitor the effects of compound 1 on lipid, DNA, RNA, protein, and cell wall biosynthesis, its effects on the incorporation of [1-^14C] acetate (50 mCi/mmol), [2-^14C] thymidine (59.8 mCi/mmol), [U-^14C] uridine (539 mCi/mmol), L-[U-^14C] leucine (306 mCi/mmol) or L-[U-^14C] isoleucine (329 mCi/mmol), and N-acetyl-D-[1-^14C] glucosamine (58.1 mCi/mmol) into S. aureus and S. pneumoniae were measured as described previously. S. aureus was exponentially grown to an A650 of 0.2 in Mueller–Hinton broth. S. pneumoniae was grown in tryptic soy broth supplemented with 5% sheep blood. […] An equal volume of DMSO solvent was added to the untreated control. After incubation with the radiolabeled precursors at 37°C for 1 h, followed by centrifugation, the cell pellets were washed twice with PBS buffer. After acetate incorporation, the total cellular lipids were extracted with chloroform-methanol-water. The incorporated radioactivity in the chloroform phase was measured by scintillation counting. For the other precursors, incorporation was terminated by adding 10% (w/v) TCA and cooling on ice for 20 min. The precipitated material was collected on Whatman GF/C glass microfiber filters, washed with TCA and ethanol, dried, and counted using a scintillation counter. The total counts incorporated at 1 h of incubation without inhibitors ranged from >7,000 for [U-^14C] uridine to <13,000 for [1-^14C] acetate. […] In all experiments, known antibacterial agents were included as positive controls.

S. pneumoniae KCTC 3932 [4] = assay: Inhibition of macromolecular biosynthesis (radiolabeled precursor incorporation) in S. pneumoniae; format: cell-based, Streptococcus pneumoniae; conditions: drugs at 2 times the MIC
Method: as §5

E. coli EW1b = assay: Overexpression assay, MIC for pump-negative (tolC) E. coli EW1b; format: cell-based; conditions: Escherichia coli
Method: as §3, §4

E. coli EW1b(pBAD) = assay: Overexpression assay, MIC for vector-containing E. coli EW1b (pBAD); format: cell-based; conditions: Escherichia coli
Method: as §3, §4

E. coli EW1b(pBAD-fabI) = assay: Overexpression assay, MIC for fabI-overexpressing E. coli EW1b (pBAD-fabI); format: cell-based; conditions: Escherichia coli
Method: as §3, §4

E. coli EW1b(pBAD-fabK) = assay: Overexpression assay, MIC for fabK-overexpressing E. coli EW1b (pBAD-fabK); format: cell-based; conditions: Escherichia coli
Method: as §3, §4

E. coli FabI = target: T2, E. coli FabI (Escherichia coli, UniProt P0AEK4); assay: E. coli FabI enzyme assay (NADH as cofactor); format: biochemical
T2 construct: made in house
Excerpt: as §1, §2

S. pneumoniae FabK = target: T3, S. pneumoniae FabK (Streptococcus pneumoniae, UniProt Q9FBC5); assay: S. pneumoniae FabK enzyme assay; format: biochemical
T3 sequence (Q9FBC5 1-324): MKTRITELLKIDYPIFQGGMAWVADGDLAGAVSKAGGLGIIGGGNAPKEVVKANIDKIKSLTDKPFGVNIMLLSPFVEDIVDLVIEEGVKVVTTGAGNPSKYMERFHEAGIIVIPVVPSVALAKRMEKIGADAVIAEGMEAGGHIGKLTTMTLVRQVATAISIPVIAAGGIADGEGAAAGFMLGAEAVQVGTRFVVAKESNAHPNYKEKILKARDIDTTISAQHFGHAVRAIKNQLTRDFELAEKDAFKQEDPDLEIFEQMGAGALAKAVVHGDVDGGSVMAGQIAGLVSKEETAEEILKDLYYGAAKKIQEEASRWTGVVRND
Excerpt: as §1, §2

E. coli KCTC 1924 = assay: MIC by broth microdilution, E. coli KCTC 1924; format: cell-based; conditions: Escherichia coli, KCTC1924, read-out: MIC E. coli
Method: as §3

S. pneumoniae KCTC 3932 [5] = assay: MIC by broth microdilution, S. pneumoniae KCTC 3932; format: cell-based; conditions: Streptococcus pneumoniae, KCTC3932, read-out: MIC S. pneumoniae
Method: as §3

[6] = S. aureus FabI, read-out: IC50 saFabI

T2 sequence (P0AEK4 whole entry): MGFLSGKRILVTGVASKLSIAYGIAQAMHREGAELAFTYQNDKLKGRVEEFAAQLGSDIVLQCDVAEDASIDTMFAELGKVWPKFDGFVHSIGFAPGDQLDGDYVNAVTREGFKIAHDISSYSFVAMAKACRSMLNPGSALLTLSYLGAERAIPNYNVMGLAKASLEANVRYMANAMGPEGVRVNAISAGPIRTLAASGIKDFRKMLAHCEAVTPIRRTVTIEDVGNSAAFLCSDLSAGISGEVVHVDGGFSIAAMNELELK

**Q.** What does the source list for `CCn1cc(C(=O)O)c(=O)c2cc(F)c(N3CCNCC3)cc21` [Norfloxacin, reference compound]?
**A.** IC50 (S. aureus FabI; [6]): > 100 µM; MIC (S. aureus RN4220 [1]): 1 µg/mL (≈ 3.13 µM); MIC (S. aureus RN4220 (pE194)): 1 µg/mL (≈ 3.13 µM); MIC [2]: 1 µg/mL (≈ 3.13 µM); Inhibition of precursor incorporation, [2-14C] Thymidine (S. aureus RN4220 [3]): 79%; Inhibition of precursor incorporation, [2-14C] Thymidine (S. pneumoniae KCTC 3932 [4]): 83%

**Q.** `CC[C@H]1OC(=O)[C@H](C)[C@@H](O[C@H]2C[C@@](C)(OC)[C@@H](O)[C@H](C)O2)[C@H](C)[C@@H](O[C@@H]2O[C@H](C)C[C@H](N(C)C)[C@H]2O)[C@](C)(O)C[C@@H](C)C(=O)[C@H](C)[C@@H](O)[C@]1(C)O` [Erythromycin, reference compound] was tested. Which IC50 (S. aureus FabI; [6]) did it give?
**A.** > 100 µM

**Q.** And the MIC (S. aureus RN4220 [1])?
**A.** 0.5 µg/mL (≈ 0.681 µM)

**Q.** What about the MIC (S. aureus RN4220 (pE194)) of the same compound?
**A.** 64 µg/mL (≈ 87.2 µM)

**Q.** What about the MIC [2] of the same compound?
**A.** 64 µg/mL (≈ 87.2 µM)

**Q.** For `O=C(N[C@H](CO)[C@H](O)c1ccc([N+](=O)[O-])cc1)C(Cl)Cl` [chlorampenicol, chloramphenicol, reference compound], which “Inhibition of precursor incorporation, L-[U-14C] Isoleucine” value (S. aureus RN4220 [3]) is on record?
**A.** 74%

**Q.** And the “Inhibition of precursor incorporation, L-[U-14C] Isoleucine” value (S. pneumoniae KCTC 3932 [4])?
**A.** 85%

**Q.** How did the MIC (E. coli EW1b; read-out: MIC E. coli EW1b (+) Ara) turn out when `CCCCC[C@H](CC(=O)NO)C(=O)N[C@H](C(=O)N1CCC[C@H]1CO)C(C)C` [Actinonin] was run?
**A.** 1 µg/mL (≈ 2.59 µM)

**Q.** And the MIC (E. coli EW1b; read-out: MIC E. coli EW1b (−) Ara)?
**A.** 1 µg/mL (≈ 2.59 µM)

**Q.** What about the MIC (E. coli EW1b(pBAD); read-out: MIC E. coli EW1b(pBAD) (+) Ara) of the same compound?
**A.** 1 µg/mL (≈ 2.59 µM)

**Q.** And the MIC (E. coli EW1b(pBAD); read-out: MIC E. coli EW1b(pBAD) (−) Ara)?
**A.** 1 µg/mL (≈ 2.59 µM)

**Q.** And the MIC (E. coli EW1b(pBAD-fabI); read-out: MIC E. coli EW1b(pBAD-fabI) (+) Ara)?
**A.** 1 µg/mL (≈ 2.59 µM)

**Q.** What about the MIC (E. coli EW1b(pBAD-fabI); read-out: MIC E. coli EW1b(pBAD-fabI) (−) Ara) of the same compound?
**A.** 1 µg/mL (≈ 2.59 µM)

**Q.** And the MIC (E. coli EW1b(pBAD-fabK); read-out: MIC E. coli EW1b(pBAD-fabK) (+) Ara)?
**A.** 1 µg/mL (≈ 2.59 µM)

**Q.** And the MIC (E. coli EW1b(pBAD-fabK); read-out: MIC E. coli EW1b(pBAD-fabK) (−) Ara)?
**A.** 1 µg/mL (≈ 2.59 µM)

**Q.** What does the source list for `C=CC(C)(C)C12C=C(O)C(=O)N3/C(=C/c4cnc[nH]4)C(=O)NC31Nc1ccccc12` (centres unmarked) [Compound 2, glandicolin A]?
**A.** IC50 (S. aureus FabI): 54.6 µM; IC50 (E. coli FabI): 49.7 µM; IC50 (S. pneumoniae FabK): > 200 µM; MIC (S. aureus RN4220 [1]): 64 µg/mL (≈ 159 µM); MIC (E. coli KCTC 1924): 64 µg/mL (≈ 159 µM); MIC (S. pneumoniae KCTC 3932 [5]): 64 µg/mL (≈ 159 µM)
